Measurements reported in ChEMBL document CHEMBL5338781, “Fragment-Based Approaches to Identify RNA Binders” (J Med Chem, 2023).
Converted amounts (≈) assume the structure as drawn.

Key:
[1] = Binding affinity to HIV-1 RNA by SPR analysis; design: species or system Human immunodeficiency virus 1
RNA = test: Binding affinity to RNA (unknown origin) by fluorescence based analysis; assay type: nucleic-acid assay
[2] = Binding affinity to pri-miR-96 (unknown origin)
[3] = Inhibition of pri-miR-96 biogenesis in human MDA-MB-231 cells; assay type: cell-based
[4] = Binding affinity to Escherichia coli ThiM TPP riboswitch
[5] = Binding affinity to influenza A virus RNA by one-dimensional NMR spectroscopy method
Influenza A virus = test: Antiviral activity against Influenza A virus assessed as inhibition of virus-induced cytopathic effect; assay type: functional, organism-based
Influenza B virus = test: Antiviral activity against Influenza B virus assessed as inhibition of virus-induced cytopathic effect; assay type: functional, organism-based
Bacterial 70S ribosome = test: Inhibition of Mycobacterium smegmatis ribosomes assessed as inhibition of translation activity; assay type: subcellular, Mycolicibacterium smegmatis
[6] = Binding affinity to HIV1 TAR RNA assessed as inhibition of Tat-mediated transactivation; assay type: functional, Human immunodeficiency virus 1
microRNA 21 [7] = test: Binding affinity to pre-miR-21 (unknown origin); assay type: nucleic-acid assay
microRNA 21 [8] = test: Inhibition of pre-miR-21 biogenesis in human MDA-MB-231 cells; assay type: cell-based
microRNA 21 [9] = test: Inhibition of pre-miR-21 biogenesis in human Triple-negative breast cancer cell; assay type: cell-based
Staphylococcus aureus = test: Antibacterial activity against Staphylococcus aureus assessed as bacterial growth inhibition; assay type: functional
Escherichia coli [10] = test: Antibacterial activity against Escherichia coli assessed as bacterial growth inhibition; assay type: functional
Sulfhydryl oxidase 1 = target: T1, Sulfhydryl oxidase 1 (Homo sapiens, UniProt O00391); test: Binding affinity to QSOX1 in human MDA-MB-231 cells; assay type: cell-based
T1 sequence (O00391 whole entry): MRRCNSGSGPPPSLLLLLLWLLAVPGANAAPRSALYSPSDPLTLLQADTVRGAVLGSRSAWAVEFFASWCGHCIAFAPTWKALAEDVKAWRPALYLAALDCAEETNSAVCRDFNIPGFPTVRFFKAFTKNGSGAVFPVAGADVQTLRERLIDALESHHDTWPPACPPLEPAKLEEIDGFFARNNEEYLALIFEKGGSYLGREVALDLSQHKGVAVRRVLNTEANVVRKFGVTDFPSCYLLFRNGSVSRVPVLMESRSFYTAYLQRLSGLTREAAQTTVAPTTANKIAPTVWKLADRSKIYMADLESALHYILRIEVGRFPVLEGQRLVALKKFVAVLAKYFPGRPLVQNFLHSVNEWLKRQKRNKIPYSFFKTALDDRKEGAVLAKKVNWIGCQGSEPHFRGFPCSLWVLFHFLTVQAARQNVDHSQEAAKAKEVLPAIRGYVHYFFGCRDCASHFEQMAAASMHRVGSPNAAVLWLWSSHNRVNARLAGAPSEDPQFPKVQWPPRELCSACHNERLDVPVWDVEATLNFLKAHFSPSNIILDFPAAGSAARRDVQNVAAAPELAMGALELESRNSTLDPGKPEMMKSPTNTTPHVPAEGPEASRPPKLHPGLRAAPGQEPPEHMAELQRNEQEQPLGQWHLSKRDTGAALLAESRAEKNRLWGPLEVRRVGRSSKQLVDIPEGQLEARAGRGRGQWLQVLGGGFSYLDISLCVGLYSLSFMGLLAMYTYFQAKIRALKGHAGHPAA

[11] = target: T2, Sulfhydryl oxidase 1 (Homo sapiens) (UniProt O00391); test: Inhibition of QSOX1 in human MDA-MB-231 cells at 20 uM relative to control; assay type: cell-based
T2 sequence (whole entry): T1 sequence (O00391 whole entry)

[12] = Binding affinity to pre-miR-372 (unknown origin)
[13] = Inhibition of pre-miR-372 biogenesis in human AGS cells; assay type: cell-based
Escherichia coli [14] = test: Binding affinity to Escherichia coli ThiM TPP riboswitch assessed as inhibition of conformational switching
[15] = Binding affinity to bacteria RNA by HTS method

CCc1nc2ccccc2cc1C(=O)N[C@@H](CSSC[C@H](NC(=O)c1cc2ccccc2nc1CC)C(=O)N1CCC[C@H]1C(=O)N[C@@H](Cc1ccccc1)C(=O)NCCCCCC(N)=O)C(=O)N1CCC[C@H]1C(=O)N[C@@H](Cc1ccccc1)C(=O)NCCCCCC(N)=O
Kd [1]: 4.1 µM

Nc1nc2[nH]nc(N)n2n1
Kd (RNA): 370 µM

CCCN(CC(=O)N(CCC)CC(=O)N(CC(N)=O)Cc1cn(CCCNC(=O)CCCOc2c(C(C)(C)C)cc(-c3nc4cc(N5CCN(C)CC5)ccc4[nH]3)cc2C(C)(C)C)nn1)C(=O)CCCOc1cccc(-c2nc3ccc(-c4nc5ccc(N6CCN(C)CC6)cc5[nH]4)cc3[nH]2)c1
Kd [2]: 0.085 µM | IC50 [3]: ~0.05 µM

OCc1ccc2nsnc2c1
Kd [4]: 56 µM

Nc1ccc2nccnc2c1
Kd [4]: 22 µM

Nc1ccnc(N)n1 [DIAMINOPYRIMIDINE]
Kd (RNA): 80 µM

COc1cc2nc(N3CCNCC3)nc(N)c2cc1OC [AMINODIMETHOXYQUINAZOLINYLPIPERAZINE]
Kd [5]: 50 µM | EC50 (Influenza A virus): 71 µM | EC50 (Influenza B virus): 71 µM

Nc1csc(Br)n1
Kd (RNA): 650 µM

Cc1nc(CN2CCN(Cc3csc(-c4ccccc4)n3)CC2)cs1
IC50 (Bacterial 70S ribosome): 9.1 µM

Nc1ccc2nc(N)nc(N)c2c1 [QUINAZOLINE-2,4,6-TRIAMINE]
IC50 [6]: 40 µM

CCc1nc2cc3ccccc3cc2cc1C(=O)N(C)[C@@H](CCn1cc(C[C@@H](C(=O)N2CCC[C@H]2C(=O)N(C)[C@@H](Cc2ccccc2)C(=O)NCCCN)N(C)C(=O)c2cc3cc4ccccc4cc3nc2CC)nn1)C(=O)N1CCC[C@H]1C(=O)N(C)[C@@H](Cc1ccccc1)C(=O)NCCCN
Kd [1]: 0.016 µM

CN1CCN(c2ccc(-c3ccc4nc(-c5ccc(OCCCC(=O)N6CCN(c7nncc8sccc78)CC6)cc5)[nH]c4c3)cc2)CC1
Kd (microRNA 21 [7]): 0.352 µM | IC50 (microRNA 21 [8]): ~1 µM | IC50 (microRNA 21 [9]): ~1 µM

CN(C)CCCOc1ccc(C(NC(=O)c2ccc(-c3cccc(NC(=O)c4ccc(-c5ccccc5)cc4)c3)o2)C(=O)N2CCNCC2)cc1 (centres undefined)
MIC (Staphylococcus aureus): 3 µM (≈ 2.06 µg/mL) | MIC (Escherichia coli [10]): 6 µM (≈ 4.11 µg/mL)

COc1ccc2nc3cc(F)ccc3c(N)c2c1
Kd [1]: 59 µM

CN1CCN(c2ccc(-c3ccc4nc(-c5ccc(OCCCC(=O)CCCN=[N+]=[N-])cc5)[nH]c4c3)cc2)CC1
Kd (microRNA 21 [7]): 18 µM

Nc1ccc2ccnc(N)c2c1
IC50 [6]: 150 µM

CCOC(=O)C1=C(Nc2ccccc2)S/C(=C\c2ccc(OCCOCCOCCOCCNC(=O)CCC(=O)N(C)[C@H]3CC[C@@H](c4ccc(Cl)c(Cl)c4)c4ccccc43)c(O)c2)C1=O
Kd (Sulfhydryl oxidase 1): 16 µM

COc1ccc2nc3cc(F)ccc3c(Nc3ccc(C(=O)Nc4ccncc4)cc3)c2c1
Kd [1]: 1 µM

C#CCCC1(CCC(=O)N(C)[C@H]2CC[C@@H](c3ccc(Cl)c(Cl)c3)c3ccccc32)N=N1
inhibition [11]: 15%

c1cc(N2CCNCC2)ccn1
Kd [4]: 620 µM

O=c1[nH]cccc1-c1nc(-c2cccc(Cl)c2)no1
Kd [12]: 0.3 µM | IC50 [13]: ~1 µM

CN1CCN(c2ccc3nc(-c4cc(C(C)(C)C)c(OCCCC(=O)NCCCN=[N+]=[N-])c(C(C)(C)C)c4)[nH]c3c2)CC1
Kd [2]: 1.5 µM

c1cc(N2CCNCC2)c(NCc2ccc3nccnc3c2)cn1
Kd [4]: 0.068 µM | K (Escherichia coli [14]): 68 µM

CCN1CCN(Cc2csc(-c3ccccc3)n2)CC1
IC50 (Bacterial 70S ribosome): 2.8 µM

NC1=Nc2cccc3cccc(c23)N1
IC50 [6]: 50 µM

NCC[C@@H](NC(=O)c1ccc(-c2cccc(NC(=O)c3ccc4nc(O)c(O)nc4c3)c2)o1)C(=O)N1CCNCC1
Kd [15]: 6.5 µM

CN1CCN(c2ccc3nc(-c4ccc5[nH]c(-c6cccc(OCCCC(=O)NCCN=[N+]=[N-])c6)nc5c4)[nH]c3c2)CC1
Kd [2]: 1.3 µM | IC50 [3]: ~0.02 µM

Cc1nc(N)nc(N)n1
Kd (RNA): 110 µM

CNCc1cc2cccnc2s1
Kd [4]: 60 µM

Cc1ncc(CN=[N+]=[N-])cn1
Kd [4]: 49 µM
